Data set [1] deals with DNA methylation (CMV-EE210 cell line, silenced GFP transgene). Briefly: cell-based green fluorescent protein (GFP) assay for demethylating activity. As to conditions: concentration at which GFP expression level is reduced from g3 to g1/2; read-out: GFP50. Here is the method:
The demethylating activity of the compounds was tested in a cell-based green fluorescent protein (GFP) assay. In the assay, a decrease in methylation resulting from exposure to a methylation inhibitor leads to GFP expression, and is readily scored.
The CMV-EE210 cell line containing the epigenetically silenced GFP transgene was used to assay for reactivation of GFP expression by flow cytometry. CMV-EE210 was made by transfecting NIH 3T3 cells with the pTR-UF/UF1/UF2 plasmid, which contained pBS(+) (Stratagene, Inc.) with a cytomegalovirus (CMV) promoter driving a humanized GFP gene adapted for expression in mammalian cells. After transfection, high-level GFP expressing cells were initially selected by FACS analysis and sorting using a MoFlo cytometer (Cytomation, Inc.).
Decitabine, a potent inhibitor of mammalian DNMT1, was used as a positive control. […] Cells were then seeded to 30% confluence (˜5000 cell/well) in a 96-well plate containing the test compounds, and grown for three days in at 37 ° C. in 5% CO2.
The plates were examined under a fluorescent microscope using a 450-490 excitation filter (13 filter cube, Leica, Deerfield Ill.). Wells were scored gl positive, g2 positive, or g3 if GFP was expressed in 10%, 30%, >75% of viable cells, respectively.
Table 1 provides the results of the test for decitabine and the test compounds as DNA methylation inhibitors. GFP50 is the concentration of an inhibitor at which the Green Fluorescent Protein (GFP) expression level is reduced from g3 to g1/2.

Data set [2] is described as follows: single dose pharmacokinetics in monkeys. The following applies: single dose 10 mg/kg.
For data set [3], the system named is murine mammary carcinoma cells TS/A. Kind of data set: anti-tumor effect in TS/A murine breast cancer model (Example 6). It counts as in vivo, Balb/c mice. The following applies: day 26 vs control mice; SGI-110 3 mg/kg SQ QDx5 days 1-5; anti-CTLA-4 mAb 100 μg at days 8, 11, 14 where combined. As for the experimental part:
TS/A is a murine mammary carcinoma originated from a moderately differentiated, weakly immunogenic mammary adenocarcinoma spontaneously arising in a 20-mo-old female BALB/c mouse.
The anti-mouse CTLA-4 was the CTLA-4 mAb 9H10, obtained from BioXCell (West Lebanon, N.H., USA), dosed at 100 μg/mouse in 200 μl (ip).
Balb/c mice (6/group) were injected SQ in the flank region with murine mammary carcinoma cells TS/A (2×10^5).
Control mice were injected with diluent for reconstitution. The effectiveness and tolerability of treatments was evaluated by tumor volume and body weight measurements, respectively.

Another data set relates to LINE-1 DNA methylation. Kind of data set: LINE-1 DNA methylation in blood samples. It counts as in vivo, cynomolgus monkeys. The following applies: monkey blood samples; repeat dose 3 mg/kg; until day 22; p<0.05. As for the experimental part: FIG. 3 illustrates the decrease in LINE1 methylation levels observed in blood samples drawn from cynomolgus monkeys on various days (D) after pretest.
In a repeat dose study, monkeys were dosed 3× weekly subcutaneously (3 mg/kg). […] (FIGS. 1 and 2.) Pharmacodynamic properties (not shown) were monitored and were acceptable. Blood samples were drawn periodically to assay LINE-1 DNA methylation.

A short description of data set [4]: stability in solvent formulations by HPLC. The data set is classed as physicochemical. Here is the method:
The stability of a compound of the invention in various formulations under various storage conditions was investigated. Stability was determined by HPLC at the designated time intervals.

A short description of a further data set: solubility. The data set is classed as physicochemical. The source says: The good chemical stability taken together with the excellent solubility identified the glycol/glycerin/ethanol (65:25:10) system as a formulation for use in animal experiments.

SMILES strings stand for the structures. ≈ marks a conversion by molar mass, not a printed value. Read-outs that look alike come from different tables or passages of the source.

Consider `Nc1ncn([C@H]2CC(OP(=O)(O)OC[C@H]3O[C@@H](n4cnc5c(=O)[nH]c(N)nc54)CC3O)[C@@H](CO)O2)c(=O)n1` (stereo partly shown), for which, in data set [1], the EC50 came out at 0.4 µM.

As to `Nc1ncn([C@H]2CC(O)[C@@H](COP(=O)(O)OC3C[C@H](n4cnc5c(=O)[nH]c(N)nc54)O[C@@H]3CO)O2)c(=O)n1` (stereo partly shown), the EC50 in data set [1] is 0.7 µM.

For the molecule `Nc1ncn([C@H]2C[C@H](O)[C@@H](CO)O2)c(=O)n1` [Decitabine, 5-aza-2′-deoxycytidine], in data set [1], the EC50 was found to be 0.5 µM. In data set [2], the AUC (usually concentration integrated over time) was determined as 340 ng·h/mL and the Cmax (commonly the highest concentration seen after dosing) was 0.16 µg/mL.

On to `Nc1ncn([C@H]2C[C@H](OP(=O)(O)OC[C@H]3O[C@@H](n4cnc5c(=O)[nH]c(N)nc54)C[C@@H]3O)[C@@H](CO)O2)c(=O)n1` [SGI-110], for which the tumor growth inhibition in data set [3] was 62.9%. Moreover, the “LINE-1 DNA methylation vs level prior to initial dosing” value with LINE-1 DNA methylation is recorded as “Decreases”. Besides, the “% decomposition per hour” value in data set [4] (DMSO/water (1:1, w/w), 25° C./60% relative humidity) came to 0.72; in data set [4] (DMSO/water (3:1, w/w), 25° C./60% relative humidity) it was 0.10; in data set [4] (Propylene Glycol/Glycerin/Ethanol (65:25:10, w/w/w), 2-8° C.) it was 0.00032; in data set [4] (Propylene Glycol/Glycerin/Ethanol (65:25:10, w/w/w), 25° C./60% relative humidity), 0.013; in data set [4] (Propylene glycol/Glycerin (70:30, v/v), room temperature) it was 0.021; in data set [4] (water, pH 7.0, 2-8° C.), 0.14. For the same molecule, the “% decomposition per hour” value in data set [4] (water, pH 7.0, room temperature) came to 1.1. Besides, the Percent compound detected amounted to 90.1% in data set [4] (DMSO/water (1:1, w/w), 25° C./60% relative humidity, 5 hours); 93.7% in data set [4] (DMSO/water (1:1, w/w), 25° C./60% relative humidity, time point 0); 94.2% in data set [4] (DMSO/water (3:1, w/w), 25° C./60% relative humidity, 24 hours); 96.6% in data set [4] (DMSO/water (3:1, w/w), 25° C./60% relative humidity, time point 0); 95.1% in data set [4] (Propylene Glycol/Glycerin/Ethanol (65:25:10, w/w/w), 2-8° C., 3 months); 95.8% in data set [4] (Propylene Glycol/Glycerin/Ethanol (65:25:10, w/w/w), 2-8° C., time point 0). For the same molecule, the Percent compound detected in data set [4] (Propylene Glycol/Glycerin/Ethanol (65:25:10, w/w/w), 25° C./60% relative humidity, 3 months) was 67.6%; in data set [4] (Propylene Glycol/Glycerin/Ethanol (65:25:10, w/w/w), 25° C./60% relative humidity, time point 0), 95.8%; in data set [4] (Propylene glycol/Glycerin (70:30, v/v), room temperature, 24 hours), 96.3%; in data set [4] (Propylene glycol/Glycerin (70:30, v/v), room temperature, time point 0) it was 96.8%; in data set [4] (water, pH 7.0, 2-8° C., 5 hours), 95.1%; in data set [4] (water, pH 7.0, 2-8° C., time point 0) it was 95.8%. Also, the Percent compound detected in data set [4] (water, pH 7.0, room temperature, 5 hours) is reported as 90.4%; in data set [4] (water, pH 7.0, room temperature, time point 0), 95.8%. For the same molecule, the “stability in anhydrous DMSO” value in data set [4] (anhydrous DMSO) is “stable”. For the same molecule, the improvement in stability is reported as 66 fold in data set [4] (combined effects of cooling plus addition of ethanol to the propylene glycol/glycerin system) and 40 fold in data set [4] (propylene glycol/glycerin/ethanol (65:25:10), changing from warmer to colder storage conditions). The solubility – broadly, the concentration that dissolves in the medium under given conditions – in “solubility” (propylene glycol/glycerin/ethanol (65:25:10), organic solvent or mixture, read-out: maximum solubility) was 130 to 150 mg/mL (≈ 233 to 269 mM); in “solubility” (water, aqueous, read-out: aqueous solubility), 20 mg/mL (≈ 35.9 mM). In addition, in data set [2], the AUC is 1,469 ng·hr/mL.

Values taken from patent US20200009247A1, “DRUG COMBINATIONS” (ASTEX PHARMACEUTICALS, INC., priority 2013, published 2020).
